From US20260308185A1, “STAT DEGRADERS AND USES THEREOF” (Recludix Pharma, Inc., priority 2023, published 2026)

How the values were obtained:
[1] = molecular target: T1, Recombinant STAT6 protein (STAT6(W123-T658)) (Homo sapiens, UniProt P42226); test: STAT6 Fluorescence Polarization (FP) Assay; format: binding; settings: 250 nM STAT6(W123-T658), 2 nM 5-FAM-Ap[…]-NH2 probe, pH 7.4, 45-minute incubation at room temperature
T1 construct: Recombinant STAT6 protein (STAT6(W123-T658))
T1 sequence (P42226 123-658): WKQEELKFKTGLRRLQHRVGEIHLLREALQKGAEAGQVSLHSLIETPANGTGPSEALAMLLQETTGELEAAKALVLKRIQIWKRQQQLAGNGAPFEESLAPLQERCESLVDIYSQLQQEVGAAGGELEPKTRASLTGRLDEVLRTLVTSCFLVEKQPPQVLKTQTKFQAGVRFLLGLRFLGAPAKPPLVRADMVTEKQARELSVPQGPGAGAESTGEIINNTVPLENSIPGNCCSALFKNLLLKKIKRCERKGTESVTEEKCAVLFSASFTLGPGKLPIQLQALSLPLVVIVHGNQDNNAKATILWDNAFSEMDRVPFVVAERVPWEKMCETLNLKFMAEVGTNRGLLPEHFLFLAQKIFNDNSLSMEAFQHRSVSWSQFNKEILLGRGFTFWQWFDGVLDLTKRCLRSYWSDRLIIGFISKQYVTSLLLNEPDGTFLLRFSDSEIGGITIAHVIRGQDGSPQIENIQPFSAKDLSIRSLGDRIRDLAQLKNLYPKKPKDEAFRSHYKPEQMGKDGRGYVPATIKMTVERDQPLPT
Protocol: An FP assay was developed to determine IC50 values for test substances. Recombinant STAT6 protein (STAT6(W123-T658)) at 250 nM was combined with a fluorescently labeled, phosphotyrosine peptide probe (5-FAM-Ap[…]-NH2) at 2 nM in FP buffer (10 mM HEPES pH 7.4, 50 mM NaCl, 1 mM EDTA, 0.05% Tween 20, 2 mM DTT). 50 μL of STAT6-probe mixture was added to serial diluted compounds in black, 96-well plates (Greiner BioOne 655076) to a final concentration of 1% DMSO. Reaction components were mixed, and FP w as measured after 45-minute incubation at room temperature using a Tecan Spark multimode plate reader. FP signal (mP) was plotted against the log concentration of the test substances and IC50 values were calculated by nonlinear regression analysis using GraphPad Prism software. For STAT6 FP assay. A=≤300 nM; B=>300-3000 nM; C=>3-30 μM; and D=>30 μM.

[2] = tested on: pSTAT3 (pY705-STAT3) in PBMC; test: MSD-pSTAT-PBMC Assay (pSTAT3); format: cell-based; settings: compound 3 hrs, then 10 ng/mL IL-6 for 10 min
From the text: (§1) Cryopreserved Peripheral Blood Mononuclear Cells (PBMC) are from AllCells. Recombinant Human […] and IL-6 are from Peprotech. Mouse monoclonal anti-STAT3 antibody, rabbit monoclonal anti-pY705-STAT3 antibody, rabbit monoclonal Anti-pY641-STAT6 antibody, and lysis buffer are from Cell Signaling Technology (CST). Mouse monoclonal anti-STAT6 antibody is from BioLegend. Assay plates, blocker, and anti-rabbit secondary antibody are from Meso Scale Discovery (MSD).
(§2) Cryopreserved PBMCs were thawed out and allowed to recover overnight in IMDM+10% heat-inactivated FBS prior to plating 50,000 (STAT3) or 25,000 (STAT6) cells per well in 96-well U-bottom tissue culture plates. Cells were treated with compound for 3 hrs, then stimulated with 10 ng/mL IL-6 (STAT3) or 1 ng/mL IL-4 (STAT6) for 10 min. Cells were then spun down and washed with ice-cold PBS prior to lysing the cell pellet with 1× lysis buffer (CST) with 1× HALT protease and phosphatase inhibitor cocktail (Thermo). Lysates were transferred to and incubated overnight at 4° C. with shaking in QuickPlex 96-well high bind assay plates (MSD) pre-coated overnight with 30 μL per well of 0.6 μg/mL mouse monoclonal anti-STAT3 antibody (STAT3) or 2 μg/mL mouse monoclonal anti-STAT6 antibody (STAT6) in 1×PBS, and pre-blocked for 1 hour with 3% Blocker-A (MSD). Captured protein in the assay plates were then washed and probed with 25 μL per well of 0.25 μg/ml rabbit monoclonal anti-pY705-STAT3 antibody (STAT3) or 0.18 μg/ml rabbit monoclonal Anti-pY641-STAT6 antibody (STAT6) in 1% Blocker-A for 1 hour at room temperature with shaking, then washed and probed with 25 ul per well of 1 ug/ml Sulfo-TAG Labeled Goat Anti-Rabbit Antibody (MSD) in 1% Blocker-A for 1 hour at room temperature with shaking. Assay plates were then washed and 150 μL of 1× Read Buffer-T (MSD) was added to each well prior to reading on an SQ120 MSD Plate Reader. Assay signal from each sample was subtracted by the signal from unstimulated control wells and normalized to DMSO control wells, IC50 values were calculated using Graph Pad Prism Dose-Response Nonlinear Regression with variable slope. For both pSTAT3 and pSTAT6 A=≤100 nM; B=>100-1000 nM; C=>1000-3000 nM; and D=>3 μM.

[3] = molecular target: T2, Recombinant STAT3 protein (STAT3(G127-I722)) (Homo sapiens, UniProt P40763); test: STAT3 Fluorescence Polarization (FP) Assay; format: binding; settings: 25 nM STAT3(G127-I722), 2 nM 5-FAM-GpYLPQTV-NH2 probe, pH 7.4, 45-minute incubation at room temperature
T2 construct: Recombinant STAT3 protein (STAT3(G127-I722))
T2 sequence (P40763 127-722): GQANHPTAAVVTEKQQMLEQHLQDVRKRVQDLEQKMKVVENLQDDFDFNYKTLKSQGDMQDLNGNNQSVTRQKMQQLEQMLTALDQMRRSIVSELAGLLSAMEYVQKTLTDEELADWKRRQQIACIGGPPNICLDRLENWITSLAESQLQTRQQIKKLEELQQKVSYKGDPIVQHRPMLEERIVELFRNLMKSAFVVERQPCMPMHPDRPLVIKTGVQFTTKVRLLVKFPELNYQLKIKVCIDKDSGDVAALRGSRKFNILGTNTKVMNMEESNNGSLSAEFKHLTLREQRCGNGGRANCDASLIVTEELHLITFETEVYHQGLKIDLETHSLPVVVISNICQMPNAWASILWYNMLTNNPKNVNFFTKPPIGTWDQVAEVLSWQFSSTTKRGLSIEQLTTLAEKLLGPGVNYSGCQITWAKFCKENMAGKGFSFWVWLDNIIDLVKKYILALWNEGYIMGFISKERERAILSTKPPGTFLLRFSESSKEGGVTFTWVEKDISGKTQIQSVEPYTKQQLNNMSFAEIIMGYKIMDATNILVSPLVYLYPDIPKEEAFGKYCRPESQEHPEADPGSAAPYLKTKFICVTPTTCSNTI
Protocol: An FP assay was developed to determine IC50 values for test substances. Recombinant STAT3 protein (STAT3(G127-I722)) at 25 nM was combined with a fluorescently labeled, phosphotyrosine peptide probe (5-FAM-GpYLPQTV-NH2) at 2 nM in FP buffer (10 mM HEPES pH 7.4, 50 mM NaCl. 1 mM EDTA, 0.05% Tween 20, 2 mM DTT). 50 μL of STAT3-probe mixture was added to serial diluted compounds in black, 96-well plates (Greiner BioOne 655076) to a final concentration of 1% DMSO. Reaction components were mixed, and FP was measured after 45-minute incubation at room temperature using a Tecan Spark multimode plate reader. FP signal (mP) was plotted against the log concentration of the test substances and IC50 values were calculated by nonlinear regression analysis using GraphPad Prism software. For STAT3 FP assay, A=≤100 nM; B=>100-1000 nM; C=>1-10 μM; and D=>10 μM.

[4] = tested on: pSTAT6 (pY641-STAT6) in PBMC; test: MSD-pSTAT-PBMC Assay (pSTAT6); format: cell-based; settings: compound 3 hrs, then 1 ng/mL IL-4 for 10 min
From the text: as §1, §2

IC50 [1] [µM] | IC50 [3] [µM] | Structure (SMILES) | IC50 [2] [µM] | IC50 [4] [µM]
3 to 30 | < 0.1 | O=C1CCC(c2ccc(OCC(=O)N3CCN(c4ccncc4C4CN(C(=O)[C@@H]5CC[C@@H]6C[C@H]7C[C@H]7C[C@H](NC(=O)c7cc8cc(C(F)(F)P(=O)(O)O)ccc8s7)C(=O)N65)C4)CC3)cc2)C(=O)N1 (stereo partly drawn) [Compound 21, ((2-(((3S,6S,7aS,8aR,9aR)-3-(3-(4-(4-(2-(4-(2,6-dioxopiperidin-3-yl)phenoxy)acetyl)piperazin-1-yl)pyridin-3-yl)azetidine-1-carbonyl)-5-oxodecahydro-1H-cyclopropa[d]pyrrolo[1,2-a]azocin-6-yl)carbamoyl)benzo[b]thiophen-5-yl)difluoromethyl)phosphonic acid] | > 3 | –
3 to 30 | < 0.1 | CN(CCOc1ccc(C2CCC(=O)NC2=O)cc1)c1ccncc1C1CN(C(=O)[C@@H]2CC[C@@H]3C[C@H]4C[C@H]4C[C@H](NC(=O)c4cc5cc(C(F)(F)P(=O)(O)O)ccc5s4)C(=O)N32)C1 (stereo partly drawn) [Compound 11, ((2-(((3S,6S,7aS,8aR,9aR)-3-(3-(4-((2-(4-(2,6-dioxopiperidin-3-yl)phenoxy)ethyl)(methyl)amino)pyridin-3-yl)azetidine-1-carbonyl)-5-oxodecahydro-1H-cyclopropa[d]pyrrolo[1,2-a]azocin-6-yl)carbamoyl)benzo[b]thiophen-5-yl)difluoromethyl)phosphonic acid] | > 3 | –
– | – | CCCC(=O)SCCOP(=O)(OCCSC(=O)CCC)C(F)(F)c1ccc2sc(C(=O)NC3CC4CC4CC4CCC(C(=O)N5CC(NC(=O)CCCCCC#Cc6cccc7c6CN(C6CCC(=O)NC6=O)C7=O)(c6ccccn6)C5)N4C3=O)cc2c1 [Compound 2, S,S′-(((((2-(((3S,6S,7aS,8aR,9aR)-3-(3-(8-(2-(2,6-dioxopiperidin-3-yl)-1-oxoisoindolin-4-yl)oct-7-ynamido)-3-(pyridin-2-yl)azetidine-1-carbonyl)-5-oxodecahydro-1H-cyclopropa[d]pyrrolo[1,2-a]azocin-6-yl)carbamoyl)benzo[b]thiophen-5-yl)difluoromethyl)phosphoryl)bis(oxy))bis(ethane-2,1-diyl)) dibutanethioate] | < 0.1 | > 3
– | – | CCCC(=O)SCCOP(=O)(OCCSC(=O)CCC)C(F)(F)c1ccc2sc(C(=O)N[C@H]3C[C@@H]4C[C@@H]4C[C@H]4CCC(C(=O)N5CC(c6cnccc6N6CCN(C(=O)COc7ccc(C8CCC(=O)NC8=O)cc7)CC6)C5)N4C3=O)cc2c1 (stereo partly drawn) [Compound 22, S,S′-(((((2-(((3S,6S,7aS,8aR,9aR)-3-(3-(4-(4-(2-(4-(2,6-dioxopiperidin-3-yl)phenoxy)acetyl)piperazin-1-yl)pyridin-3-yl)azetidine-1-carbonyl)-5-oxodecahydro-1H-cyclopropa[d]pyrrolo[1,2-a]azocin-6-yl)carbamoyl)benzo[b]thiophen-5-yl)difluoromethyl)phosphoryl)bis(oxy))bis(ethane-2,1-diyl)) dibutanethioate] | < 0.1 | –
3 to 30 | < 0.1 | O=C1CCC(N2Cc3c(C#CCCCCCC(=O)NC4(c5ccccn5)CN(C(=O)[C@@H]5CC[C@@H]6C[C@H]7C[C@H]7C[C@H](NC(=O)c7cc8cc(C(F)(F)P(=O)(O)O)ccc8s7)C(=O)N65)C4)cccc3C2=O)C(=O)N1 (stereo partly drawn) [Compound 1, ((2-(((3S,6S,7aS,8aR,9aR)-3-(3-(8-(2-(2,6-dioxopiperidin-3-yl)-1-oxoisoindolin-4-yl)oct-7-ynamido)-3-(pyridin-2-yl)azetidine-1-carbonyl)-5-oxodecahydro-1H-cyclopropa[d]pyrrolo[1,2-a]azocin-6-yl)carbamoyl)benzo[b]thiophen-5-yl)difluoromethyl)phosphonic acid] | > 3 | –
– | – | CCCC(=O)SCCOP(=O)(OCCSC(=O)CCC)C(F)(F)c1ccc2sc(C(=O)NC3CC4CC4CC4CCC(C(=O)N5CC(c6cnccc6N(C)CCOc6ccc(C7CCC(=O)NC7=O)cc6)C5)N4C3=O)cc2c1 [Compound 12, S,S′-(((((2-(((3S,6S,7aS,8aR,9aR)-3-(3-(4-((2-(4-(2,6-dioxopiperidin-3-yl)phenoxy)ethyl)(methyl)amino)pyridin-3-yl)azetidine-1-carbonyl)-5-oxodecahydro-1H-cyclopropa[d]pyrrolo[1,2-a]azocin-6-yl)carbamoyl)benzo[b]thiophen-5-yl)difluoromethyl)phosphoryl)bis(oxy))bis(ethane-2,1-diyl)) dibutanethioate] | < 0.1 | –
